Test results: US7041665B2, “Benzoxazinone derivatives, their preparation and use as medicaments” (Laboratories del Dr. Esteve, S.A., priority 2002, dated 2006)
Counter-ions that a name gives are not always drawn.

Key:
male Wistar rats = assay: Nocturnal ingestion test; type: in vivo, rat; settings: intra-peritoneal, compared to control group
Description: Measurement of the Intake in Animal Models
The animals employed were male Wistar rats (200–270 g) supplied by Harlan, S. A. The acclimatization period in our stable before being used in the experimental trials was at least 5 days. In this time the animals were stabled in groups of 5 in translucid cages, with water and food ad libitum. The animals were acclimatized to individual stabling at least 24 hours before conducting the experiment.
The test is carried out in the animal's cage in order to minimize the stress implied in a change of cage, which could affect the intake. Water and food are available at all times ad libitum. Immediately before turning out the lights in the room the animals are weighed and randomly assigned to a treatment group (vehicle or product under study). Immediately after the administration the rats are returned to their cages, where a known amount of food had been placed. The following morning the amount of food remaining in each cage was weighed, and the animals were again weighed.
References: Ants Kask et al., Journal of Pharmacology, 414 (2001) 215–224; Andrew V. Turnbull et al., Diabetes, Vol. 51, August 2002
Effect of Some Compounds of the Invention on Nocturnal Ingestion in Male Wistar Rats (Intra-Peritoneal Administration)

Neuropeptide Y5 = target: T1, Neuropeptide Y5 (Rattus norvegicus, UniProt Q63634); assay: Binding to Neuropeptide Y5, [125I]-PYY(3-36), BIBP 3226 sat., rat cortex membranes; settings: radioligand [125I]-PYY3-36, 1 μM BIBP 3226 to saturate Y1, 25° C., 120 minutes
T1 construct: their brains are rapidly removed and the cortex is dissected; from tissue; host or cells: rat brain cortex membranes (male Wistar rats)
T1 sequence (Q63634 1-445): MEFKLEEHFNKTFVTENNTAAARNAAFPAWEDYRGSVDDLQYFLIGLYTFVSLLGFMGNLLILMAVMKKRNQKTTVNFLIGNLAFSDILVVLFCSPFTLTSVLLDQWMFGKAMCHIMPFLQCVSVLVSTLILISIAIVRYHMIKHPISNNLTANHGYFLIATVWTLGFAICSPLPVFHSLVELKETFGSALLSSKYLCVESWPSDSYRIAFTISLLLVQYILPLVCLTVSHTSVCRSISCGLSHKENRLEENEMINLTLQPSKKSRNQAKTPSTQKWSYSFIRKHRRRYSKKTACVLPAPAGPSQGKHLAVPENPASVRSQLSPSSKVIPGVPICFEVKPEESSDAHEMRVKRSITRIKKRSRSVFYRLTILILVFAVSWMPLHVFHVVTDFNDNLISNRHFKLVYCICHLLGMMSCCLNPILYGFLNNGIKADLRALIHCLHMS
Description: Binding to Neuropeptide Y5
(§1) Male Wistar rats are sacrificed by decapitation, their brains are rapidly removed and the cortex is dissected. Homogenization is performed in cold conditions in the buffer: 120 mM NaCl, 4.7 mM KCl, 2.2 mM CaCl2, 1.2 mM KH2PO4, 1.2 mM MgSO4, 25 mM NaHCO3, 5.5 mM glucose, pH 7.4, by means of a Ultra-Turrax homogenizer for 15 seconds at 13,500 rpm. The ratio between fresh tissue weight and buffer volume is of twenty times. The membrane is centrifuged for 10 min at 48,000 g. The supernatant is discarded and the pellet is washed, resuspended and recentrifuged three more times. The final membrane resuspension is performed in the buffer: 120 mM NaCl, 4.7 mM KCl, 2.2 mM CaCl2, 1.2 mM KH2PO4, 1.2 mM MgSO4, 25 mM NaHCO3, 5.5 mM glucose, 0.1% BSA, 0.05% bacitracin, pH 7.4, at a ratio of 20 ml/g fresh tissue. […] Incubation volume: 500 μl. […] The filters are cold-washed three times with two milliliters of the same buffer used in homogenization. […] Non-specific binding is determined in the presence of 1 μM of pNPY (porcin Neuropeptide Y). The assays are performed in triplicate.

Neuropeptide Y2 = target: T2, Neuropeptide Y2 (Rattus norvegicus, UniProt Q9ERC0); assay: Binding to Neuropeptide Y2, [125I]-PYY(3-36), rat hypoccampus membranes; settings: radioligand [125I]-PYY3-36, 25° C., 150 minutes
T2 construct: their brains are rapidly removed and the hypoccampus is dissected; from tissue; host or cells: rat hippocampus membranes (male Wistar rats)
T2 sequence (Q9ERC0 1-381): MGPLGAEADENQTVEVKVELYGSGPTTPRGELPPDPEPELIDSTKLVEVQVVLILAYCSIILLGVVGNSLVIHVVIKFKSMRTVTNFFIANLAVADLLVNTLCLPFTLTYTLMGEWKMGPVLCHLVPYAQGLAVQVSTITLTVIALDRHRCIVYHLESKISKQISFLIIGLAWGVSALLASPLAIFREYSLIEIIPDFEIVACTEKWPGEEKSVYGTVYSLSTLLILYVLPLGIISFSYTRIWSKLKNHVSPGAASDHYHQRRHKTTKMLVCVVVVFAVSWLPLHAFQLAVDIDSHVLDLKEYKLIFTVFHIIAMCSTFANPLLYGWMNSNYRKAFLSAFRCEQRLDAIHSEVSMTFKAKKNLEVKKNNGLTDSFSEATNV
Description: Binding to Neuropeptide Y2
as §1, with “the hypoccampus” for “the cortex”, “of ten” for “of twenty”, “recentrifuged two” for “recentrifuged three”, “times.” for “times. The final membrane resuspension is performed in the buffer: 120 mM NaCl, 4.7 mM KCl, 2.2 mM CaCl2, 1.2 mM KH2PO4, 1.2 mM MgSO4, 25 mM NaHCO3, 5.5 mM glucose, 0.1% BSA, 0.05% bacitracin, pH 7.4, at a ratio of 20 ml/g fresh tissue.”, “with three” for “with two”

1-{1-[N-(9-oxo-9H-fluoren-3-yl)aminocarbonylmethyl]-4-(piperidinyl)}-8-methyl-1,4-dihydro-2H-3,1-benzoxazin-2-one hydrochloride [Example 35]
Effect on nocturnal ingestion: body weight of the animals (male Wistar rats; 20 mg/kg): reduces body | Effect on nocturnal ingestion: food intake (male Wistar rats; 20 mg/kg): Reduces food intake

O=C(CN1CCC(N2C(=O)OCc3ccccc32)CC1)Nc1ccc2c(c1)-c1ccccc1C2=O (as salt: HCl) [Example 3, 1-{1-[N-(9-oxo-9H-fluoren-3-yl)aminocarbonylmethyl]-4-(piperidinyl)}-1,4-dihydro-2H-3,1-benzoxazin-2-one hydrochloride]
melting point: > 275 °C

O=C(CN1CCC(N2C(=O)OCc3ccccc32)CC1)Nc1ccc2c(c1)CCCC2=O (as salt: HCl) [Example 6, 1-{1-[N-(1-oxo-1,2,3,4-tetrahydronaphthalen-6-yl)aminocarbonylmethyl]-4-(piperidinyl)}-1,4-dihydro-2H-3,1-benzoxazin-2-one hydrochloride]
melting point: 260 to 264 °C

Cc1ccc2c(c1)COC(=O)N2C1CCN(CC(=O)Nc2ccc3c(c2)-c2ccccc2C3=O)CC1 (as salt: HCl) [Example 20, 1-{1-[N-(9-oxo-9H-fluoren-3-yl)aminocarbonylmethyl]-4-(piperidinyl)}-6-methyl-1,4-dihydro-2 H-3,1-benzoxazin-2-one hydrochloride]
melting point: 250 to 252 °C

O=C(CN1CCC(N2C(=O)OCc3ccccc32)CC1)Nc1ccc2c(c1)-c1ccccc1C2=O [Example 3, 1-{1-[N-(9-oxo-9H-fluoren-3-yl)aminocarbonylmethyl]-4-(piperidinyl)}-1,4-dihydro-2H-3,1-benzoxazin-2-one hydrochloride]
Ki (Neuropeptide Y5): 6.4 nM

O=C(CN1CCC(N2C(=O)OCc3ccccc32)CC1)Nc1ccc2c(c1)CCCC2=O [Example 6, 1-{1-[N-(1-oxo-1,2,3,4-tetrahydronaphthalen-6-yl)aminocarbonylmethyl]-4-(piperidinyl)}-1,4-dihydro-2H-3,1-benzoxazin-2-one hydrochloride]
Ki (Neuropeptide Y2): > 1000 nM | Ki (Neuropeptide Y5): 18.4 nM

CCn1c2ccccc2c2cc(NC(=O)CN3CCC(N4C(=O)OCc5ccccc54)CC3)ccc21 [Example 18, 1-{1-[N-(9-ethyl-9H-carbazol-3-yl)aminocarbonylmethyl]-4-(piperidinyl)}-1,4-dihydro-2H-3,1-benzoxazin-2-one hydrochloride]
Effect on nocturnal ingestion: body weight of the animals (male Wistar rats; 40 mg/kg): reduces body | Effect on nocturnal ingestion: food intake (male Wistar rats; 40 mg/kg): Reduces food intake

Cc1ccc2c(c1)COC(=O)N2C1CCN(CC(=O)Nc2ccc3c(c2)-c2ccccc2C3=O)CC1 [Example 20, 1-{1-[N-(9-oxo-9H-fluoren-3-yl)aminocarbonylmethyl]-4-(piperidinyl)}-6-methyl-1,4-dihydro-2 H-3,1-benzoxazin-2-one hydrochloride]
Ki (Neuropeptide Y5): 0.87 nM | Effect on nocturnal ingestion: body weight of the animals (male Wistar rats; 40 mg/kg): reduces body | Effect on nocturnal ingestion: food intake (male Wistar rats; 40 mg/kg): Reduces food intake
